# Laboratory results as given in patent US12077503B2, “Substituted cyclic amides and their use as herbicides” (FMC CORPORATION, priority 2015, dated 2024).
# Tests used:
# Type in all cases: in vivo
# [1] = tested on: barnyardgrass (Echinochloa crus-galli); test: Test G Pre-Emergence Protocol; conditions: Echinochloa crus-galli, pre-emergence, 312 h, evaluated after 13 days; for pest or weed control at 15.625 g/ha: 15.625 g ai/ha, read-out: Barnyard grass damage rating (100=total damage to plant; 0=no damage to plant); for pest or weed control at 62.5 g/ha: 62.5 g ai/ha, 100=total damage to plant, 0=no damage to plant, read-out: plant damage rating, Barnyardgrass; for pest or weed control at 250 g/ha: 250 g ai/ha, read-out: Barnyardgrass damage rating (100=total damage to plant; 0=no damage to plant)
# Procedure, shortened: (§1)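 Pots of seeds in standard soil were grown for one day in a glasshouse (24/16 °C day/night, 14 h light, 65% humidity), then sprayed with compound in acetone/water 50:50 with 0.5% Tween 20 at 15.625, 62.5 or 250 g/ha. Damage was scored after 13 days on a 0 (none) to 100 (total) scale.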
# [2] = tested on: corn (Zea mays); test: Test G Pre-Emergence Protocol; conditions: Zea mays, pre-emergence, 312 h, evaluated after 13 days; for plant injury at 15.625 g/ha: 15.625 g ai/ha; for plant injury at 15.625 g/ha / plant injury at 250 g/ha: read-out: Corn damage rating (100=total damage to plant; 0=no damage to plant); for plant injury at 62.5 g/ha: 62.5 g ai/ha, 100=total damage to plant, 0=no damage to plant, read-out: plant damage rating, Corn; for plant injury at 250 g/ha: 250 g ai/ha
# Procedure, shortened: as §1
# [3] = tested on: giant foxtail (Setaria faberi); test: Test G Pre-Emergence Protocol; conditions: Setaria faberi, pre-emergence, 312 h, evaluated after 13 days; for pest or weed control at 15.625 g/ha: 15.625 g ai/ha; for pest or weed control at 15.625 g/ha / pest or weed control at 250 g/ha: read-out: Foxtail, Giant damage rating (100=total damage to plant; 0=no damage to plant); for pest or weed control at 62.5 g/ha: 62.5 g ai/ha, 100=total damage to plant, 0=no damage to plant, read-out: plant damage rating, Foxtail, Giant; for pest or weed control at 250 g/ha: 250 g ai/ha
# Procedure, shortened: as §1
# [4] = tested on: ivy-leaved morning glory (Ipomoea hederacea); test: Test G Pre-Emergence Protocol; conditions: Ipomoea, pre-emergence, 312 h, evaluated after 13 days; for pest or weed control at 15.625 g/ha: 15.625 g ai/ha, read-out: Morning-glory, Ivy-leaved damage rating (100=total damage to plant; 0=no damage to plant); for pest or weed control at 62.5 g/ha: 62.5 g ai/ha, 100=total damage to plant, 0=no damage to plant, read-out: plant damage rating, Morningglory, Ivy-leaved; for pest or weed control at 250 g/ha: 250 g ai/ha, read-out: Morningglory, Ivy-leaved damage rating (100=total damage to plant; 0=no damage to plant)
# Procedure, shortened: as §1
# [5] = tested on: redroot pigweed (Amaranthus retroflexus); test: Test G Pre-Emergence Protocol; conditions: Amaranthus retroflexus, pre-emergence, 312 h, evaluated after 13 days; for pest or weed control at 15.625 g/ha: 15.625 g ai/ha; for pest or weed control at 15.625 g/ha / pest or weed control at 250 g/ha: read-out: Pigweed, Redroot damage rating (100=total damage to plant; 0=no damage to plant); for pest or weed control at 62.5 g/ha: 62.5 g ai/ha, 100=total damage to plant, 0=no damage to plant, read-out: plant damage rating, Pigweed, Redroot; for pest or weed control at 250 g/ha: 250 g ai/ha
# Procedure, shortened: as §1
# [6] = tested on: velvetleaf (Abutilon theophrasti); test: Test G Pre-Emergence Protocol; conditions: Abutilon theophrasti, pre-emergence, 312 h, evaluated after 13 days; for pest or weed control at 15.625 g/ha: 15.625 g ai/ha; for pest or weed control at 15.625 g/ha / pest or weed control at 250 g/ha: read-out: Velvetleaf damage rating (100=total damage to plant; 0=no damage to plant); for pest or weed control at 62.5 g/ha: 62.5 g ai/ha, 100=total damage to plant, 0=no damage to plant, read-out: plant damage rating, Velvetleaf; for pest or weed control at 250 g/ha: 250 g ai/ha
# Procedure, shortened: as §1
# [7] = tested on: barnyardgrass (Echinochloa crus-galli); test: Test G Post-Emergence Protocol; conditions: Echinochloa crus-galli, post-emergence, 312 h; for pest or weed control at 15.625 g/ha: 15.625 g ai/ha, evaluated after 13 days (100=total damage to plant; 0=no damage to plant), read-out: Barnyardgrass damage rating; for pest or weed control at 62.5 g/ha: 62.5 g ai/ha, read-out: Barnyardgrass damage rating (100=total damage to plant; 0=no damage to plant); for pest or weed control at 62.5 g/ha / pest or weed control at 250 g/ha: evaluated after 13 days; for pest or weed control at 250 g/ha: 250 g ai/ha, read-out: damage to plant, Barnyardgrass (100=total damage to plant; 0=no damage to plant)
# Procedure, shortened: (§2)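 Values are percent visual injury at 13 days after treatment (0 none, 100 total). Treatment was a post-emergence spray at 15.625, 62.5 or 250 g/ha on 8-day-old pot plants kept at 24/16 °C.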
# [8] = tested on: corn (Zea mays); test: Test G Post-Emergence Protocol; conditions: Zea mays, post-emergence, 312 h; for plant injury at 15.625 g/ha: 15.625 g ai/ha, evaluated after 13 days (100=total damage to plant; 0=no damage to plant), read-out: Corn damage rating; for plant injury at 62.5 g/ha: 62.5 g ai/ha, read-out: Corn damage rating (100=total damage to plant; 0=no damage to plant); for plant injury at 62.5 g/ha / plant injury at 250 g/ha: evaluated after 13 days; for plant injury at 250 g/ha: 250 g ai/ha, read-out: damage to plant, Corn (100=total damage to plant; 0=no damage to plant)
# Procedure, shortened: as §2
# [9] = tested on: giant foxtail (Setaria faberi); test: Test G Post-Emergence Protocol; conditions: Setaria faberi, post-emergence, 312 h; for pest or weed control at 15.625 g/ha: 15.625 g ai/ha, evaluated after 13 days (100=total damage to plant; 0=no damage to plant), read-out: Foxtail, Giant damage rating; for pest or weed control at 62.5 g/ha: 62.5 g ai/ha, read-out: Foxtail, Giant damage rating (100=total damage to plant; 0=no damage to plant); for pest or weed control at 62.5 g/ha / pest or weed control at 250 g/ha: evaluated after 13 days; for pest or weed control at 250 g/ha: 250 g ai/ha, read-out: damage to plant, Foxtail, Giant (100=total damage to plant; 0=no damage to plant)
# Procedure, shortened: as §2
# [10] = tested on: ivy-leaved morning glory (Ipomoea hederacea); test: Test G Post-Emergence Protocol; conditions: Ipomoea, post-emergence, 312 h; for pest or weed control at 15.625 g/ha: 15.625 g ai/ha, evaluated after 13 days (100=total damage to plant; 0=no damage to plant), read-out: Morningglory, Ivy-leaved damage rating; for pest or weed control at 62.5 g/ha: 62.5 g ai/ha, read-out: Morningglory, Ivy-leaved damage rating (100=total damage to plant; 0=no damage to plant); for pest or weed control at 62.5 g/ha / pest or weed control at 250 g/ha: evaluated after 13 days; for pest or weed control at 250 g/ha: 250 g ai/ha, read-out: damage to plant, Morningglory, Ivy-leaved (100=total damage to plant; 0=no damage to plant)
# Procedure, shortened: as §2
# [11] = tested on: redroot pigweed (Amaranthus retroflexus); test: Test G Post-Emergence Protocol; conditions: Amaranthus retroflexus, post-emergence, 312 h; for pest or weed control at 15.625 g/ha: 15.625 g ai/ha, evaluated after 13 days (100=total damage to plant; 0=no damage to plant), read-out: Pigweed, Redroot damage rating; for pest or weed control at 62.5 g/ha: 62.5 g ai/ha, read-out: Pigweed, Redroot damage rating (100=total damage to plant; 0=no damage to plant); for pest or weed control at 62.5 g/ha / pest or weed control at 250 g/ha: evaluated after 13 days; for pest or weed control at 250 g/ha: 250 g ai/ha, read-out: damage to plant, Pigweed, Redroot (100=total damage to plant; 0=no damage to plant)
# Procedure, shortened: as §2
# [12] = tested on: velvetleaf (Abutilon theophrasti); test: Test G Post-Emergence Protocol; conditions: Abutilon theophrasti, post-emergence, 312 h; for pest or weed control at 15.625 g/ha: 15.625 g ai/ha, evaluated after 13 days (100=total damage to plant; 0=no damage to plant), read-out: Velvetleaf damage rating; for pest or weed control at 62.5 g/ha: 62.5 g ai/ha, read-out: Velvetleaf damage rating (100=total damage to plant; 0=no damage to plant); for pest or weed control at 62.5 g/ha / pest or weed control at 250 g/ha: evaluated after 13 days; for pest or weed control at 250 g/ha: 250 g ai/ha, read-out: damage to plant, Velvetleaf (100=total damage to plant; 0=no damage to plant)
# Procedure, shortened: as §2
structure (smiles),measurement,setting,value
COc1cc([C@@H]2CN(C)C(=O)[C@H]2C(=O)Nc2cccc(F)c2F)ccc1Cl (racemic) [Compound 1474],pest or weed control at 15.625 g/ha,[1],10%
same,pest or weed control at 62.5 g/ha,[1],70%
same,pest or weed control at 250 g/ha,[1],80%
same,plant injury at 15.625 g/ha,[2],0%
same,plant injury at 62.5 g/ha,[2],0%
same,plant injury at 250 g/ha,[2],40%
same,pest or weed control at 15.625 g/ha,[3],50%
same,pest or weed control at 62.5 g/ha,[3],80%
same,pest or weed control at 250 g/ha,[3],90%
same,pest or weed control at 15.625 g/ha,[4],10%
same,pest or weed control at 62.5 g/ha,[4],0%
same,pest or weed control at 250 g/ha,[4],10%
same,pest or weed control at 15.625 g/ha,[5],0%
same,pest or weed control at 62.5 g/ha,[5],0%
same,pest or weed control at 250 g/ha,[5],20%
same,pest or weed control at 15.625 g/ha,[6],0%
same,pest or weed control at 62.5 g/ha,[6],0%
same,pest or weed control at 250 g/ha,[6],0%
same,pest or weed control at 15.625 g/ha,[7],20%
same,pest or weed control at 62.5 g/ha,[7],50%
same,pest or weed control at 250 g/ha,[7],60%
same,plant injury at 15.625 g/ha,[8],10%
same,plant injury at 62.5 g/ha,[8],30%
same,plant injury at 250 g/ha,[8],40%
same,pest or weed control at 15.625 g/ha,[9],60%
same,pest or weed control at 62.5 g/ha,[9],70%
same,pest or weed control at 250 g/ha,[9],70%
same,pest or weed control at 15.625 g/ha,[10],40%
same,pest or weed control at 62.5 g/ha,[10],50%
same,pest or weed control at 250 g/ha,[10],50%
same,pest or weed control at 15.625 g/ha,[11],30%
same,pest or weed control at 62.5 g/ha,[11],0%
same,pest or weed control at 250 g/ha,[11],30%
same,pest or weed control at 15.625 g/ha,[12],10%
same,pest or weed control at 62.5 g/ha,[12],0%
same,pest or weed control at 250 g/ha,[12],20%
Cc1ccc([C@@H]2CN(C)C(=O)[C@H]2C(=O)Nc2cccc(F)c2F)cc1Cl (racemic) [Compound 1475],pest or weed control at 15.625 g/ha,[1],10%
same,pest or weed control at 62.5 g/ha,[1],70%
same,pest or weed control at 250 g/ha,[1],80%
same,plant injury at 15.625 g/ha,[2],0%
same,plant injury at 62.5 g/ha,[2],30%
same,plant injury at 250 g/ha,[2],50%
same,pest or weed control at 15.625 g/ha,[3],70%
same,pest or weed control at 62.5 g/ha,[3],80%
same,pest or weed control at 250 g/ha,[3],90%
same,pest or weed control at 15.625 g/ha,[4],0%
same,pest or weed control at 62.5 g/ha,[4],0%
same,pest or weed control at 250 g/ha,[4],10%
same,pest or weed control at 15.625 g/ha,[5],0%
same,pest or weed control at 62.5 g/ha,[5],0%
same,pest or weed control at 250 g/ha,[5],0%
same,pest or weed control at 15.625 g/ha,[6],0%
same,pest or weed control at 62.5 g/ha,[6],0%
same,pest or weed control at 250 g/ha,[6],0%
same,pest or weed control at 15.625 g/ha,[7],30%
same,pest or weed control at 62.5 g/ha,[7],60%
same,pest or weed control at 250 g/ha,[7],50%
same,plant injury at 15.625 g/ha,[8],30%
same,plant injury at 62.5 g/ha,[8],40%
same,plant injury at 250 g/ha,[8],70%
same,pest or weed control at 15.625 g/ha,[9],70%
same,pest or weed control at 62.5 g/ha,[9],70%
same,pest or weed control at 250 g/ha,[9],70%
same,pest or weed control at 15.625 g/ha,[10],20%
same,pest or weed control at 62.5 g/ha,[10],0%
same,pest or weed control at 250 g/ha,[10],70%
same,pest or weed control at 15.625 g/ha,[11],10%
same,pest or weed control at 62.5 g/ha,[11],30%
same,pest or weed control at 250 g/ha,[11],50%
same,pest or weed control at 15.625 g/ha,[12],10%
same,pest or weed control at 62.5 g/ha,[12],10%
same,pest or weed control at 250 g/ha,[12],10%
